According to patent publication US20230123534A1, “LIPIDS FOR LIPID NANOPARTICLE DELIVERY OF ACTIVE AGENTS” (Acuitas Therapeutics, Inc., priority 2019, published 2023):
Read-outs that look alike come from different tables or passages of the source.

Assays:
[1] = system: luciferase expression in the liver; test: In vivo luciferase mRNA expression rodent model (liver luciferase after tail vein injection of FLuc mRNA lipid nanoparticles); set-up: species or system mice; settings: liver 4 hours after administration, FLuc mRNA (L-6107) LNP 50% cationic lipid/10% DSPC/38.5% cholesterol/1.5% PEG-DMG; for Liver Luc @ 0.3 mg/kg dose: 0.3 mg mRNA/kg; for Liver Luc @ 1.0 mg/kg dose: 1.0 mg mRNA/kg
Description: Lipid nanoparticles were prepared and tested according to the general procedures described in PCT Pub. Nos. WO 2015/199952 and WO 2017/004143, the full disclosures of which are incorporated herein by reference. Briefly, cationic lipid, DSPC, cholesterol and PEG-lipid were solubilized in ethanol at a molar ratio of about 50:10:38.5:1.5 or about 47.5:10:40.8:1.7. Lipid nanoparticles (LNP) were prepared at a total lipid to mRNA weight ratio of approximately 10:1 to 30:1. The mRNA is diluted to 0.2 mg/mL in 10 to 50 mM citrate or acetate buffer, pH 4. Syringe pumps were used to mix the ethanolic lipid solution with the mRNA aqueous solution at a ratio of about 1:5 to 1:3 (vol/vol) with total flow rates above 15 mL/min. The ethanol was then removed and the external buffer replaced with PBS by dialysis. Finally, the lipid nanoparticles were filtered through a 0.2 µm pore sterile filter. Lipid nanoparticle particle size was approximately 55-95 nm diameter, and in some instances approximately 70-90 nm diameter as determined by quasi-elastic light scattering using a Malvern Zetasizer Nano ZS (Malvern, UK).
Studies were performed in 6-8 week old female C57BL/6 mice (Charles River) or 8-10 week old CD-1 (Harlan) mice (Charles River) according to guidelines established by an institutional animal care committee (ACC) and the Canadian Council on Animal Care (CCAC). Varying doses of mRNA-lipid nanoparticle were systemically administered by tail vein injection and animals euthanized at a specific time point (e.g., 4 hours) post-administration. Liver and spleen were collected in pre-weighed tubes, weights determined, immediately snap frozen in liquid nitrogen and stored at -80° C. until processing for analysis.
For liver, approximately 50 mg was dissected for analyses in a 2 mL FastPrep tubes (MP Biomedicals, Solon OH). ¼” ceramic sphere (MP Biomedicals) is added to each tube and 500 µL of Glo Lysis Buffer - GLB (Promega, Madison Wl) equilibrated to room temperature is added to liver tissue. Liver tissues were homogenized with the FastPrep24 instrument (MP Biomedicals) at 2 × 6.0 m/s for 15 seconds. Homogenate was incubated at room temperature for 5 minutes prior to a 1:4 dilution in GLB and assessed using SteadyGlo Luciferase assay system (Promega). Specifically, 50 µL of diluted tissue homogenate was reacted with 50 µL of SteadyGlo substrate, shaken for 10 seconds followed by 5 minute incubation and then quantitated using a CentroXS^3 LB 960 luminometer (Berthold Technologies, Germany). The amount of protein assayed was determined by using the BCA protein assay kit (Pierce, Rockford IL). Relative luminescence units (RLU) were then normalized to total µg protein assayed. To convert RLU to ng luciferase a standard curve was generated with QuantiLum Recombinant Luciferase (Promega).
The FLuc mRNA (L-6107 or L-7202) from Trilink Biotechnologies will express a luciferase protein, originally isolated from the firefly, photinus pyralis. FLuc is commonly used in mammalian cell culture to measure both gene expression and cell viability. It emits bioluminescence in the presence of the substrate, luciferin. This capped and poly-adenylated mRNA was fully substituted with respect to uridine and/or cytidine nucleosides.
The cationic lipids shown in Table 2 have previously been tested with nucleic acids. For comparative purposes, these lipids were also used to formulate lipid nanoparticles containing the FLuc mRNA (L-6107) using an in line mixing method, as described in Example 1 and in PCT/US10/22614, which is hereby incorporated by reference in its entirety. Lipid nanoparticles were formulated using the following molar ratio: 50% Cationic lipid / 10% distearoylphosphatidylcholine (DSPC) / 38.5% Cholesterol / 1.5% PEG lipid (“PEG-DMG”, i.e., 1-(monomethoxy-polyethyleneglycol)-2,3-dimyristoylglycerol, with an average PEG molecular weight of 2000). […]

[2] = system: luciferase expression in the liver; test: as above; set-up: species or system mice; settings: 0.5 mg mRNA/kg, liver 4 hours after administration, LNP 50% cationic lipid/10% DSPC/38.5% cholesterol/1.5% PEG-DMA or 47.5/10/40.7/1.8
[3] = Determination of pKa of formulated lipids (TNS fluorescence assay in lipid nanoparticles); assay type: physicochemical
Description: As described elsewhere, the pKa of formulated cationic lipids is correlated with the effectiveness of LNPs for delivery of nucleic acids (see Jayaraman et al, Angewandte Chemie, International Edition (2012), 51(34), 8529-8533; Semple et al, Nature Biotechnology 28, 172-176 (2010)). […] Lipid nanoparticles comprising cationic lipid/DSPC/cholesterol/PEG-lipid (50/10/38.5/1.5 mol%) in PBS at a concentration of 0.4 mM total lipid were prepared using the in-line process as described in Example 1. TNS was prepared as a 100 µM stock solution in distilled water. Vesicles were diluted to 24 µM lipid in 2 mL of buffered solutions containing, 10 mM HEPES, 10 mM MES, 10 mM ammonium acetate, 130 mM NaCl, where the pH ranged from 2.5 to 11. An aliquot of the TNS solution was added to give a final concentration of 1 µM and following vortex mixing fluorescence intensity was measured at room temperature in a SLM Aminco Series 2 Luminescence Spectrophotometer using excitation and emission wavelengths of 321 nm and 445 nm. A sigmoidal best fit analysis was applied to the fluorescence data and the pKa was measured as the pH giving rise to half-maximal fluorescence intensity.

[4] = Table 3, cationic lipid formulated in LNP, TNS fluorescence assay, read-out: pKa

| SMILES | Liver Luc @ 0.3 mg/kg dose [1] [ng luciferase/g liver] | Liver Luc @ 1.0 mg/kg dose [1] [ng luciferase/g liver] | Liver Luc @ 0.5 mg/kg (ng luc/g liver) [2] [ng luc/g liver] | also measured |
| --- | --- | --- | --- | --- |
| CCCCCC/C=C\COC(=O)CCCCCCCC(CCCCCCCC(=O)OC/C=C\CCCCCC)OC(=O)CCCN(C)C [319 (2% PEG)] | 258 ± 67 | 681 ± 203 | – | – |
| CCCCC/C=C\C/C=C\CCCCCCCCN(CCCCCCCC/C=C\C/C=C\CCCCC)CCN(C)C [A] | 77 ± 40 | 203 ± 122 | – | – |
| CCCCC(CC)C(=O)OCCCCCCCCCC(CCCCCCCCCOC(=O)C(CC)CCCC)OC(=O)CCCN(C)C (stereo not shown) [Compound 137] | 281 ± 203 | 588 ± 303 | – | – |
| CCCCCCCCCCN(C(=O)CCCCN(C)C)C(CCCCCCCCC(=O)OCC(CCCC)CCCCCC)CCCCCCCCC(=O)OCC(CCCC)CCCCCC (stereo not shown) [Compound I-7, BIS(2-BUTYLOCTYL) 10-(N-DECYL-5-(DIMETHYLAMINO)PENTANAMIDO)NONADECANEDIOATE] | – | – | 2420 ± 1079 | – |
| CCCCCCCCCCN(C(=O)CCCCN(CC)CC)C(CCCCCCCCC(=O)OCC(CCCC)CCCCCC)CCCCCCCCC(=O)OCC(CCCC)CCCCCC (stereo not shown) [Compound I-8, BIS(2-BUTYLOCTYL) 10-(N-DECYL-5-(DIETHYLAMINO)PENTANAMIDO)NONADECANEDIOATE] | – | – | 7384 ± 1916 | – |
| CCCCCCCCCCN(C(=O)CCCCN1CCCC1)C(CCCCCCCCC(=O)OCC(CCCC)CCCCCC)CCCCCCCCC(=O)OCC(CCCC)CCCCCC (stereo not shown) [Compound I-9, BIS(2-BUTYLOCTYL) 10-(N-DECYL-5-(PYRROLIDIN-1-YL)PENTANAMIDO)NONADECANEDIOATE] | – | – | 2223 ± 777 | – |
| CCCCCCCCCCN(C(=O)CCCN(C)C)C(CCCCCC(=O)OCC(CCCCCC)CCCCCCCC)CCCCCC(=O)OCC(CCCCCC)CCCCCCCC (stereo not shown) [Compound I-16, BIS(2-HEXYLDECYL) 7-(N-DECYL-4-(DIMETHYLAMINO)BUTANAMIDO)TRIDECANEDIOATE] | – | – | 4678 ± 1243 | – |
| CCCCCCCCCCN(C(=O)CCCN(C)C)C(CCCCCCCCC(=O)OCC(CCCC)CCCCCC)CCCCCCCCC(=O)OCC(CCCC)CCCCCC (stereo not shown) [Compound I-18, BIS(2-BUTYLOCTYL) 10-(N-DECYL-4-(DIMETHYLAMINO)BUTANAMIDO)NONADECANEDIOATE] | – | – | 13301 ± 8071 | – |
| CCCCCCCCCCN(C(=O)CCCN1CCCC1)C(CCCCCC(=O)OCC(CCCCCC)CCCCCCCC)CCCCCC(=O)OCC(CCCCCC)CCCCCCCC (stereo not shown) [Compound I-29, BIS(2-HEXYLDECYL) 7-(N-DECYL-4-(PYRROLIDIN-1-YL)BUTANAMIDO)TRIDECANEDIOATE] | – | – | 5551 ± 1650 | – |
| CCCCCCC(CCCC)COC(=O)CCCCCCCCC(CCCCCCCCC(=O)OCC(CCCC)CCCCCC)N(CC(CC)CCCC)C(=O)CCCN(C)C (stereo not shown) [Compound I-30, BIS(2-BUTYLOCTYL) 10-(4-(DIMETHYLAMINO)-N-(2-ETHYLHEXYL)BUTANAMIDO)NONADECANEDIOATE] | – | – | 13614 ± 3348 | pKa ([3]; Table 1, cationic lipid formulated in LNP (cationic lipid/DSPC/cholesterol/PEG-lipid 50/10/38.5/1.5 mol%), TNS fluorescence, pH giving half-maximal fluorescence): 6.47; pKa ([3]; Table 3, cationic lipid formulated in LNP, TNS fluorescence assay): 6.47 |
| CCCCCCCCCCN(C(=O)CCCN(C)C)C(CCCCCCCCCOC(=O)C(CCCC)CCCCCC)CCCCCCCCCOC(=O)C(CCCC)CCCCCC (stereo not shown) [Compound I-32, 10-(4-(DIMETHYLAMINO)-N-DECYLBUTANAMIDO)NONADECANE-1,19-DIYL BIS(2-BUTYLOCTANOATE)] | – | – | 4091 ± 713 | pKa ([3]; Table 1, cationic lipid formulated in LNP (cationic lipid/DSPC/cholesterol/PEG-lipid 50/10/38.5/1.5 mol%), TNS fluorescence, pH giving half-maximal fluorescence, read-out: pKa): 6.41 |
| CCCCCCCCCCN(C(=O)CCN1CCCC1)C(CCCCCCCCC(=O)OCC(CCCC)CCCCCC)CCCCCCCCC(=O)OCC(CCCC)CCCCCC (stereo not shown) [Compound I-33, BIS(2-BUTYLOCTYL) 10-(N-DECYL-3-(PYRROLIDIN-1-YL)PROPANAMIDO)NONADECANEDIOATE] | – | – | 1304 ± 278 | – |
| CCCCCCCCCCN(C(=O)CCN(C)C)C(CCCCCC(=O)OCC(CCCCCC)CCCCCCCC)CCCCCC(=O)OCC(CCCCCC)CCCCCCCC (stereo not shown) [Compound I-35, BIS(2-HEXYLDECYL) 7-(N-DECYL-3-(DIMETHYLAMINO)PROPANAMIDO)TRIDECANEDIOATE] | – | – | 14312 ± 4174 | pKa [3, 4]: 6.39 |
| CCCCCCCCC(CCCCCC)COC(=O)CCCCCC(CCCCCC(=O)OCC(CCCCCC)CCCCCCCC)N(CCCCCC(=O)OCC(CC)CCCC)C(=O)CCN(C)C (stereo not shown) [Compound I-36, BIS(2-HEXYLDECYL) 7-(3-(DIMETHYLAMINO)-N-(6-((2-ETHYLHEXYL)OXY)-6-OXOHEXYL)PROPANAMIDO)TRIDECANEDIOATE] | – | – | 10377 ± 1435 | pKa [3, 4]: 6.55 |
| CCCCCCCCCCN(C(=O)CCCN(C)C)C(CCCCCCCCC(=O)OC(CCCCCC)CCCCCC)CCCCCCCCC(=O)OC(CCCCCC)CCCCCC [Compound I-37, DI(TRIDECAN-7-YL) 10-(N-DECYL-4-(DIMETHYLAMINO)BUTANAMIDO)NONADECANEDIOATE] | – | – | 15234 ± 5248 | pKa [3, 4]: 6.3 |
| CCCCC/C=C\C/C=C\CCCCCCCCOCC(CN(C)C)OCCCCCCCC/C=C\C/C=C\CCCCC (stereo not shown) [DLinDMA] | 13 ± 3 | 67 ± 20 | – | – |
| CCCCC/C=C\C/C=C\CCCCCCCCC(CCCCCCCC/C=C\C/C=C\CCCCC)OC(=O)CCN(C)C [MC2] | 4 ± 1 | – | – | – |
| CCCCC/C=C\C/C=C\CCCCCCCCC(CCCCCCCC/C=C\C/C=C\CCCCC)OC(=O)CCCN(C)C [MC3] | – | 757 ± 528 | – | – |
| CCCCC/C=C\C/C=C\CCCCCCCCC(CCCCCCCC/C=C\C/C=C\CCCCC)OC(=O)CCCCN(C)C [MC4] | 41 ± 10 | – | – | – |
| CCCCC/C=C\C/C=C\CCCCCCCCC1(CCCCCCCC/C=C\C/C=C\CCCCC)OC[C@@H](CCN(C)C)O1 [XTC2] | 80 ± 28 | 237 ± 99 | – | – |
